Source: ChEMBL document CHEMBL5584244, “Discovery of novel pyrrolo[2,1-c][1,4]benzodiazepine-3,11-dione (PBD) derivatives as selective HDAC6 inhibitors for the efficient treatment of idiopathic pulmonary fibrosis (IPF) in vitro and in vivo” (Eur J Med Chem, 2024)
The source made the active and inactive calls. No cut-off for these calls is given here.

How the values were obtained:
[1] = biological target: T1, Protein deacetylase HDAC6 (Homo sapiens, UniProt Q9UBN7); experiment: Inhibition of recombinant human full length HDAC6 using Boc-Lys (Ac)-AMC as substrate incubated for 120 mins by fluorescence analysis
T1 sequence (Q9UBN7 whole entry): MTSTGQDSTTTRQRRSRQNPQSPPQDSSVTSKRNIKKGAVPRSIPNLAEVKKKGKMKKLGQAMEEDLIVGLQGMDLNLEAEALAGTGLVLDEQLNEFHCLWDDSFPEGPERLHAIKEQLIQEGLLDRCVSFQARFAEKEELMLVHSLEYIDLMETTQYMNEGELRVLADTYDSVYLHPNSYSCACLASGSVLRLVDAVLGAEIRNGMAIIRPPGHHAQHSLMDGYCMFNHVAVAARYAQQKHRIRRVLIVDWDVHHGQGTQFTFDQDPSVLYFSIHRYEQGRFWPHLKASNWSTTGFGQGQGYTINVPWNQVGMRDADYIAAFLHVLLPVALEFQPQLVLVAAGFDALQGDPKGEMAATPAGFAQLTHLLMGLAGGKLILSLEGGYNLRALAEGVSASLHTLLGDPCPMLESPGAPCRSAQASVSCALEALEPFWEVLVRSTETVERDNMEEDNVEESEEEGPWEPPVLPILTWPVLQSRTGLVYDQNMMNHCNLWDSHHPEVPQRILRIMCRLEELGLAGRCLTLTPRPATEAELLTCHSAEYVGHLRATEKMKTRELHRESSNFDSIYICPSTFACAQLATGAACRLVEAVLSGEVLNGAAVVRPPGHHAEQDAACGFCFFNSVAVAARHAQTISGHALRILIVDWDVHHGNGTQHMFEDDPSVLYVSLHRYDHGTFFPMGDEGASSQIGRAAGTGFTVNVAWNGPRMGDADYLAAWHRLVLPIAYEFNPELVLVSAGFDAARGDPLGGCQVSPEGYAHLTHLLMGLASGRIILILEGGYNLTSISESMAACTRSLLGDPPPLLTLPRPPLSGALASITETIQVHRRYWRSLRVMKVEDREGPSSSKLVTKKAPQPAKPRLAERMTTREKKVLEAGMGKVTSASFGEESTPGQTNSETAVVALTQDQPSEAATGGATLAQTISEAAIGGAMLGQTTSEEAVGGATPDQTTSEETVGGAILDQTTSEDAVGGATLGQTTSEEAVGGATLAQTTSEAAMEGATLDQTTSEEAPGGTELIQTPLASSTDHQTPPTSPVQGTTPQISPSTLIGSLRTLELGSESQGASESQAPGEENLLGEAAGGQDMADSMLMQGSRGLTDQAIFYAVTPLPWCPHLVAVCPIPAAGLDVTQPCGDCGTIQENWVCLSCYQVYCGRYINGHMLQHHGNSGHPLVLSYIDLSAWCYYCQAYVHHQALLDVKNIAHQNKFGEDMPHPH

Histone deacetylase 1 = Histone deacetylase 1 (Homo sapiens, UniProt Q13547); experiment: Inhibition of C-terminal His6/Flag-tagged recombinant human full length HDAC1 using Boc-Lys (Ac)-AMC as substrate incubated for 120 mins by fluorescence analysis
[2] = biological target: T2, Polyamine deacetylase HDAC10 (Homo sapiens, UniProt Q969S8); experiment: Inhibition of N-terminal FLAG-tagged recombinant human HDAC10 (2 to 631 residues) expressed in baculovirus sf9 insect cells expression system using Boc-Lys (Ac)-AMC as substrate incubated for 120 mins by fluorescence analysis
T2 sequence (Q969S8 whole entry): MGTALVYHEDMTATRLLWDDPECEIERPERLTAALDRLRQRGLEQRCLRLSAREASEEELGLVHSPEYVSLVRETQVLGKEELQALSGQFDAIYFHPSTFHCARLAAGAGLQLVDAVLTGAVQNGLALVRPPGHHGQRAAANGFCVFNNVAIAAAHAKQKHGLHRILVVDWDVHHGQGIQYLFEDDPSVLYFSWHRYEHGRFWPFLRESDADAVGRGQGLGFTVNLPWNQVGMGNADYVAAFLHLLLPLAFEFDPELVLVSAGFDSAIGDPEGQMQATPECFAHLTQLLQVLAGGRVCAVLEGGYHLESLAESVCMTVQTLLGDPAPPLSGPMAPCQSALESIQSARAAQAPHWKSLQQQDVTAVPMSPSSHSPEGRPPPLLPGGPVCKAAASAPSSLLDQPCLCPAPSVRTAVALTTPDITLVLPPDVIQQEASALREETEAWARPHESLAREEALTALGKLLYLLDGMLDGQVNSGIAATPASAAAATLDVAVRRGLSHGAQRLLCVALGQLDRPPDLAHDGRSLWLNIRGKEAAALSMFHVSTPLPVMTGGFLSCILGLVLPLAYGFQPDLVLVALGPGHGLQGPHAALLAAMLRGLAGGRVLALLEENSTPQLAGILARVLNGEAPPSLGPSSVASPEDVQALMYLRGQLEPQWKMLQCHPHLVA

[3] = Cytotoxicity against HELF cells assessed as reduction in viability at 2.5 to 10 uM after 48 hrs by MTT assay; format: toxicity, cell-based; conditions: human, dose 2.5-10 µM
[4] = Cytotoxicity against HELF cells assessed as reduction in viability at 1 to 300 uM after 48 hrs under without FBS condition by MTT assay; format: toxicity, cell-based; conditions: human, dose 1-300 µM
[5] = biological target: T3, Protein deacetylase HDAC6 (Homo sapiens) (UniProt Q9UBN7); experiment: Inhibition of HDAC6 in TGF-beta1-induced HELF cells by fluorescence based microplate reader analysis; format: cell-based; conditions: dose 2.5-10 µM
T3 sequence (whole entry): T1 sequence (Q9UBN7 whole entry)

[6] = biological target: T3, Protein deacetylase HDAC6 (Homo sapiens); experiment: Inhibition of HDAC6 in TGF-beta1-induced HELF cells assessed as upregulation of acetylated alpha-tubulin level by Western blot analysis; format: cell-based; conditions: dose 2.5-10 µM
[7] = Intrinsic clearance in human liver microsomes at 100 uM incubated upto 60 mins by LC-MS/MS analysis; format: ADME, Microsome; conditions: read-out: CLH
[8] = Stability of compound in human liver microsomes assessed as remaining parent compound at 100 uM incubated after 60 mins by LC-MS/MS analysis; format: ADME, Microsome; conditions: read-out: Stability
[9] = Stability of compound in human liver microsomes assessed as remaining parent compound at 100 uM incubated after 60 mins in presence of NADPH by LC-MS/MS analysis; format: ADME, Microsome; conditions: read-out: Stability
Mus musculus [10] = experiment: Anti-pulmonary fibrosis activity in bleomycin-induced C57BL/6 mouse model of pulmonary fibrosis assessed as inhibition of HDAC activity in lung at 50 to 100 mg/kg, ip for 3 weeks by fluorescence based microplate reader analysis; format: functional, organism-based; conditions: dose 50-100 mg/kg
Mus musculus [11] = experiment: Anti-pulmonary fibrosis activity in bleomycin-induced C57BL/6 mouse model of pulmonary fibrosis assessed as decrease in thickening of the alveolar wall in lung at 50 to 100 mg/kg, ip for 3 weeks by H and E staining based fluorescence microscopic analysis; format: functional, organism-based; conditions: dose 50-100 mg/kg

Histone deacetylase 1, sequence (Q13547 whole entry, the tested form may be a part): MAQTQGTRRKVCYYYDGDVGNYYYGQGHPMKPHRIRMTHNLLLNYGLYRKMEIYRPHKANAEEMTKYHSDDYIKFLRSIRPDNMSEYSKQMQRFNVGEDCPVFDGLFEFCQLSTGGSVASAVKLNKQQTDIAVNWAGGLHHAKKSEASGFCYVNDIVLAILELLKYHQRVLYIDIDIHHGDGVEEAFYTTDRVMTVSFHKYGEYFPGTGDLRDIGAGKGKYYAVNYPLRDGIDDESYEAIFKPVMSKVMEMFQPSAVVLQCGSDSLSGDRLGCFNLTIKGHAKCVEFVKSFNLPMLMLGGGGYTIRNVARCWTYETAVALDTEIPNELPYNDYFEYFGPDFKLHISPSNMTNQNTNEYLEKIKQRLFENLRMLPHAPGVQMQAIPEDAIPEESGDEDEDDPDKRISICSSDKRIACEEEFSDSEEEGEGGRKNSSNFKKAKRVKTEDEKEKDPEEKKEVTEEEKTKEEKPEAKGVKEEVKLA

CC(=O)O.O=C(NO)c1ccc(CN2C(=O)[C@@H]3CCCN3Cc3ccccc32)cc1
IC50 [1]: 0.00897 µM | IC50 (Histone deacetylase 1): 0.878 µM | IC50 [2]: 1.32 µM | Activity [3]: Non-Toxic | Activity [4]: Toxic | inhibition [5]: Dose-Dependent Effect | inhibition [6]: Dose-Dependent Effect | microsomal CLint at 100 µM [7]: < 9.6 µL/min/mg | remaining at 1 h, 100 µM [8]: 77.4% | remaining at 1 h, 100 µM [9]: 95.7% | inhibition (Mus musculus [10]): Active | Activity (Mus musculus [11]): inactive
